According to article PMC7029871, “Development and validation of a sensitive LC-MS/MS method for the quantitation of IMB-YH-4py5-2H, an antituberculosis candidate, and its application to the pharmacokinetic study” (PLoS ONE, 2020):

Target: T1, CYP1A2 (Homo sapiens, UniProt P05177)
T1 construct: purchased Corning (Woburn, MA, USA)
T1 sequence (P05177 1-516): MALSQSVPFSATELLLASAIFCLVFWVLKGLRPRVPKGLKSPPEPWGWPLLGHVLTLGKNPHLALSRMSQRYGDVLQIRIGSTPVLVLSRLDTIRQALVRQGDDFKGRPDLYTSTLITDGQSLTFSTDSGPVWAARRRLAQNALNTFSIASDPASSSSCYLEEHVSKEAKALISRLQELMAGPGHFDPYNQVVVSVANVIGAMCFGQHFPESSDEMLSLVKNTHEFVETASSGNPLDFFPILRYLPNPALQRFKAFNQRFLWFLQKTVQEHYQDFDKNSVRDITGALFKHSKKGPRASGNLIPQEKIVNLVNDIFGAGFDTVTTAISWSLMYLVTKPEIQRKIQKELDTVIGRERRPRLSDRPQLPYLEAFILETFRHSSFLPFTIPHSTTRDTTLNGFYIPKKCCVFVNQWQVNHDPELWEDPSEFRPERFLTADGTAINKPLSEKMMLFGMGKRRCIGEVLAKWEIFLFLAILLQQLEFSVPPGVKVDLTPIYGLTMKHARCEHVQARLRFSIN
Assay: Metabolism by recombinant human P450 enzyme
Format: in vitro ADME
Conditions: recombinant CYP1A2 0.05 nmol/mL, 1 μM, 30 min
Method: In addition, to characterize the enzymes that may be involved in microsomal metabolism, IMB-YH-4py5-2H was incubated at 37°C for 30 min with different recombinant human P450 enzymes, i.e., CYP1A2, CYP2A6, CYP2B6, CYP2C8, CYP2C9, CYP2C19, CYP2D6, CYP2E1, CYP3A4 and CYP3A5. The incubation system included CYP isoenzyme at a final concentration of 0.05 nmol/mL, 100 mM PBS (pH 7.4) or 100 mmol/L Tris buffer (pH 7.5, Tris buffer was used in the CYP2C9 and CYP2A6 reaction systems and PBS was used for the other enzymes), NADPH regeneration system, and 1 μM IMB-YH-4py5-2H.
After incubation, the samples were processed as described in “Sample processing”. All experiments were performed in triplicate. The concentration of IMB-YH-4py5-2H was measured using LC-MS/MS analysis.

Question: With `CN(C)C(=O)/C=C/C(=O)c1ccc(-c2ccncc2)cc1.Cl` [IMB-YH-4py5-2H, (E)-N,N-dimethyl-4-oxo-4-(4-(pyridin-4-yl)phenyl)but-2-enamide hydrochloride] as the molecule, how does the “metabolism by CYP isozyme” value read?
Answer: The value was “high metabolic activity”.
